Legend:
[1] = tested on: patients with stable HFrEF; assay: Safety and tolerability (TEAEs, troponin, ECG, Holter) in SAD cohorts, patients with stable HFrEF; format: in vivo, human
Protocol: Safety and efficacy assessments were conducted by measuring patients' vital signs and laboratory parameters; performing TTE to measure, e.g., systolic ejection time; performing electrocardiograms (e.g., 12-lead ECG), real-time ECG telemetry (e.g., at least 3-lead), and Holter ECG; and measuring levels of troponin (e.g., troponin I and/or troponin T) and 4β-hydroxycholesterol.
The following safety laboratory parameters were measured: (1) hematology parameters (CBC, including differential count, and platelet count); (2) serum chemistry parameters (e.g., sodium, potassium, chloride, bicarbonate, calcium, magnesium, urea, creatinine, ALP, ALT, AST, total bilirubin, glucose, and CPK); and (3) urinalysis parameters (e.g., pH, protein, glucose, leukocyte cstcrasc, and blood).
Abnormal and/or rising troponin values (as per investigator's judgment and taking into account potential baseline troponin elevation frequently observed in heart failure) led to the patient being clinically evaluated for possible myocardial ischemia. […] The entire clinical context (e.g., signs, symptoms, new ECG changes, new troponin, and CK-MB abnormalities) was evaluated and correlated with any other relevant clinical findings, patient's medical history, and laboratory data to determine the clinical significance of the findings. Troponin results performed on Day 2 of Part 1 (SAD) and Day 10 of Part 2 (MAD) at a local lab were reviewed prior to the patient being discharged the next day.
Primary endpoints for this study (safety measures) included the following: treatment-emergent AEs and SAEs; ECG recordings, interpretation, and intervals; vital signs; serum Troponin I concentrations; laboratory abnormalities; and physical examination abnormalities.

[2] = tested on: patients with stable HFrEF; assay: TTE pharmacodynamics in MAD cohorts, patients with stable HFrEF; format: in vivo, human; details: plasma concentration group <2000 ng/mL (n = 30); LS mean difference vs placebo
Protocol: During the study, multiple evaluations were performed that included: serial TTE assessments (11-14 TTEs per patient on Days 1, 2, 3, 4, 7, 9, 10 and 11); PK sampling (PK sample collected concomitantly with every post-randomization echocardiogram); ECGs (on Days 2, 3, 4, 7, 9, 10, 11 and 16); troponin (collected concomitantly with every post-randomization ECG); and safety laboratory assessments. Confined patients underwent continuous telemetry. Holter monitoring was performed in all patients at baseline (Days 1-2) and at the end of double-blind treatment (Days 7-9). Vital signs were collected daily.
PD assessment was done by transthoracic echocardiography as described in Example 1 above. TTE evaluations of LVSV (derived from LVOT-VTI), LVEF, LVFS, SET, and other parameters were PD assessments at predetermined time points. The patients were on bed rest for 10 minutes before the TTEs were obtained. […]
The pharmacodynamic effects of Compound I on echocardiographic markers of cardiac structure and function were analyzed by Compound I plasma concentration groups: <2000 ng/mL (lower concentration group), 2000-3500 ng/ml (medium concentration group) and >3500 ng/ml (higher concentration group) (Table 16) and with PK-PD scatterplots (FIGS. 9A-9C). […]

[3] = SAD Cohorts 1 and 2, 175 mg (n = 8)
[4] = SAD Cohorts 1 and 2, 350 mg (n = 8)
[5] = SAD Cohorts 1 and 2, 400 mg Split Dose (n = 4)
[6] = SAD Cohorts 1 and 2, 550 mg Split Dose (n = 2)
[7] = SAD Cohorts 1 and 2, Total Active (n = 12)

Cn1cc(S(=O)(=O)[C@@](C)(F)C2CCN(C(=O)Nc3ccon3)CC2)c(C(F)F)n1 [Compound I, (R)-4-(1-((3-(difluoromethyl)-1-methyl-1H-pyrazol-4-yl)sulfonyl)-1-fluoroethyl)-N-(isoxazol-3-yl) piperidine-1-carboxamide]
1 (8.3)− n (%): TEAE: Diverticulitis [1, 7]
1 (8.3) n (%): TEAE: Anemia [1, 7] | TEAE: Bursitis [1, 7] | TEAE: Cardiac discomfort [1, 7] | TEAE: Diarrhoea [1, 7] | TEAE: Dyspnea [1, 7] | TEAE: Fatigue [1, 7] | TEAE: Hypomagnesemia [1, 7] | TEAE: Infusion site discomfort [1, 7] | TEAE: Neck pain [1, 7] | TEAE: Oral contusion [1, 7] | TEAE: Orthostatic hypotension [1, 7] | TEAE: Proteinuria [1, 7] | TEAE: Troponin increase [1, 7] | TEAE: Urinary tract infection [1, 7] | TEAE: Ventricular extrasystoles [1, 7]
3 (75.0) n (%): TEAE: Any SOC, any PT [1, 5]
0.12 ng/mL: maximum troponin I level, one subject ([1]; 550 mg, 24 hours post-dose (4×ULN))
5 (62.5) n (%): TEAE: Any SOC, any PT [1, 4]
1 (12.5) n (%): TEAE: Dyspnea [1, 3] | TEAE: Fatigue [1, 3] | TEAE: Infusion site discomfort [1, 3] | TEAE: Urinary tract infection [1, 3] | TEAE: Bursitis [1, 4] | TEAE: Diarrhoea [1, 4] | TEAE: Hypomagnesemia [1, 4] | TEAE: Oral contusion [1, 4] | TEAE: Proteinuria [1, 4]
0.8: E/e′ (lateral), mean change from baseline (placebo-corrected) [2]
1 (25.0) n (%): TEAE: Anemia [1, 5] | TEAE: Neck pain [1, 5] | TEAE: Orthostatic hypotension [1, 5] | TEAE: Ventricular extrasystoles [1, 5]
2 (25.0) n (%): TEAE: Any SOC, any PT [1, 3]
1 (50.0) n (%): TEAE: Any SOC, any PT [1, 6] | TEAE: Cardiac discomfort [1, 6] | TEAE: Dyspnea [1, 6] | TEAE: Troponin increase [1, 6]
10 (83.3) n (%): TEAE: Any SOC, any PT [1, 7]

— patent US20250325531A1, “TREATMENT OF SYSTOLIC DYSFUNCTION” (MyoKardia, Inc., priority 2024, published 2025)
